Assays:
[1] = target: T1, EGFR tyrosine kinase enzyme (Homo sapiens, UniProt P00533); test: Protein tyrosine kinase phosphorylation assay, Test (a); assay type: biochemical; conditions: ATP at Km concentration; read-out: IC50 (nM) Test (a) (inhibition of tyrosine kinase protein phosphorylation)
T1 construct: Recombinant intracellular fragments of EGFR, erbB2 and erbB4; made in house; host or cells: baculovirus/Sf21 insect cells
Method: This test measures the ability of a test compound to inhibit the phosphorylation of a tyrosine containing polypeptide substrate by EGFR tyrosine kinase enzyme.
Recombinant intracellular fragments of EGFR, erbB2 and erbB4 (accession numbers X00588, X03363 and L07868 respectively) were cloned and expressed in the baculovirus/Sf21 system. Lysates were prepared from these cells by treatment with ice-cold lysis buffer (20 mM N-2-hydroxyethylpiperizine-N′-2-ethanesulfonic acid (HEPES) pH7.5, 150 mM NaCl, 10% glycerol, 1% Triton X-100, 1.5 mM MgCl2, 1 mM ethylene glycol-bis(β-aminoethyl ether) N′,N′,N′,N′-tetraacetic acid (EGTA), plus protease inhibitors and then cleared by centrifugation.
Constitutive kinase activity of the recombinant protein was determined by its ability to phosphorylate a synthetic peptide (made up of a random co-polymer of Glutamic Acid, Alanine and Tyrosine in the ratio of 6:3:1). Specifically, Maxisorb™ 96-well immunoplates were coated with synthetic peptide (0.2 μg of peptide in a 100 μl phosphate buffered saline (PBS) solution and incubated at 4° C. overnight). Plates were washed in PBS-T (phosphate buffered saline with 0.5% Tween 20) then in 50 mM HEPES pH 7.4 at room temperature to remove any excess unbound synthetic peptide. EGFR, ErbB2 or ErbB4 tyrosine kinase activity was assessed by incubation in peptide coated plates for 20 minutes at 22° C. in 100 mM HEPES pH 7.4, adenosine trisphosphate (ATP) at Km concentration for the respective enzyme, 10 mM MnCl2, 0.1 mM Na3VO4, 0.2 mM DL-dithiothreitol (DTT), 0.1% Triton X-100 with test compound in DMSO (final concentration of 2.5%). Reactions were terminated by the removal of the liquid components of the assay followed by washing of the plates with PBS-T.
The immobilised phospho-peptide product of the reaction was detected by immunological methods. Firstly, plates were incubated for 90 minutes at room temperature with anti-phosphotyrosine primary antibodies that were raised in the mouse (4G10 from Upstate Biotechnology). Following extensive washing, plates were treated with Horseradish Peroxidase ([…]) conjugated sheep anti-mouse secondary antibody (NXA931 from Amersham) for 60 minutes at room temperature. After further washing, HRP activity in each well of the plate was measured colorimetrically using 22′-Azino-di-[3-ethylbenzthiazoline sulfonate (6)] diammonium salt crystals (ABTS™ from Roche) as a substrate.
Quantification of colour development and thus enzyme activity was achieved by the measurement of absorbance at 405 nm on a Molecular Devices ThermoMax microplate reader. Kinase inhibition for a given compound was expressed as an IC50 value. This was determined by calculation of the concentration of compound that was required to give 50% inhibition of phosphorylation in this assay. The range of phosphorylation was calculated from the positive (vehicle plus ATP) and negative (vehicle minus ATP) control values.

KB cells = test: EGFR driven KB cell proliferation assay, Test (b); assay type: cell-based; conditions: Homo sapiens, 96 h, EGF 1 ng/ml, incubation for 4 days, MTT
Method: This assay measures the ability of a test compound to inhibit the proliferation of KB cells (human naso-pharangeal carcinoma obtained from the American Type Culture Collection (ATCC).
KB cells (human naso-pharangeal carcinoma obtained from the ATCC were cultured in Dulbecco's modified Eagle's medium (DMEM) containing 10% foetal calf serum, 2 mM glutamine and non-essential amino acids at 37° C. in a 7.5% CO2 air incubator. Cells were harvested from the stock flasks using Trypsin/ethylaminediaminetetraacetic acid (EDTA). Cell density was measured using a haemocytometer and viability was calculated using trypan blue solution before being seeded at a density of 1.25×10^3 cells per well of a 96 well plate in DMEM containing 2.5% charcoal stripped serum, 1 mM glutamine and non-essential amino acids at 37° C. in 7.5% CO2 and allowed to settle for 4 hours.
Following adhesion to the plate, the cells are treated with or without EGF (final concentration of 1 ng/ml) and with or without compound at a range of concentrations in dimethylsulfoxide (DMSO) (0.1% final) before incubation for 4 days. Following the incubation period, cell numbers were determined by addition of 50 μl of 3-(4,5-Dimethylthiazol-2-yl)-2,5-diphenyltetrazolium bromide (MTT) (stock 5 mg/ml) for 2 hours. MTT solution was then tipped off, the plate gently tapped dry and the cells dissolved upon the addition of 100 μl of DMSO.
Absorbance of the solubilised cells was read at 540 nm using a Molecular Devices ThermoMax microplate reader. Inhibition of proliferation was expressed as an IC50 value. This was determined by calculation of the concentration of compound that was required to give 50% inhibition of proliferation. The range of proliferation was calculated from the positive (vehicle plus EGF) and negative (vehicle minus EGF) control values.

T1 sequence (P00533 669-1210 limits assumed): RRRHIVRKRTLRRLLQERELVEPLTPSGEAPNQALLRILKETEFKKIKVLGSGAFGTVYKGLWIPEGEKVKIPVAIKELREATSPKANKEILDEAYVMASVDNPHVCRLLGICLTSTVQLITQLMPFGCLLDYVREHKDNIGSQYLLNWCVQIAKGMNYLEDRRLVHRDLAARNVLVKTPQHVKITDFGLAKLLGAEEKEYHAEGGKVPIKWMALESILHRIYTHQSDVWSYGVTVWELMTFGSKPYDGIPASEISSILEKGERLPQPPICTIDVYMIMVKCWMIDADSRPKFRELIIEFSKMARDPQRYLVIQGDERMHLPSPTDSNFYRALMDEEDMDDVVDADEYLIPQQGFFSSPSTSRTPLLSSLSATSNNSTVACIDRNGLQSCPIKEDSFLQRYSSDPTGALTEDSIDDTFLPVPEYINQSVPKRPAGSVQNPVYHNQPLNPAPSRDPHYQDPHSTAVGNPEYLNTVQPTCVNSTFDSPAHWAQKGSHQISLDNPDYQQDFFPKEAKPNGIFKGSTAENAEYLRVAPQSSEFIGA

IC50 [1] [nM] | IC50 (KB cells) [nM] | Compound
15 | 47 | COc1cc2c(Nc3cccc(Cl)c3F)ncnc2cc1OC1CCN(C(=O)Cc2cc(C)no2)CC1 [Compound 33, N-(3-chloro-2-fluorophenyl)-6-methoxy-7-({1-[(3-methylisoxazol-5-yl)acetyl]piperidin-4-yl}oxy)quinazolin-4-amine]
< 1 | 17 | COc1cc2ncnc(Nc3cccc(Cl)c3F)c2cc1OC1CCN(C(=O)Nc2c(C)noc2C)CC1 [Compound 96, 4-({4-[(3-Chloro-2-fluorophenyl)amino]-7-methoxyquinazolin-6-yl}oxy)-N-(3,5-dimethylisoxazol-4-yl)piperidine-1-carboxamide]

Continued, molecule first:

Compound | IC50 [1] [nM] | IC50 (KB cells) [nM]
COc1cc2ncnc(Nc3cccc(Cl)c3F)c2cc1OC1CCN(C(=O)c2ccno2)CC1 [Compound 1, N-(3-chloro-2-fluorophenyl)-6-{[1-(isoxazol-5-ylcarbonyl)piperidin-4-yl]oxy}-7-methoxyquinazolin-4-amine] | < 1 | 17
COc1cc2ncnc(Nc3cccc(Cl)c3F)c2cc1OC1CCN(C(=O)c2ccccn2)CC1 [Compound 10, N-(3-chloro-2-fluorophenyl)-7-methoxy-6-{[1-(pyridin-2-ylcarbonyl)piperidin-4-yl]oxy}quinazolin-4-amine] | 14 | 16
COc1cc2c(Nc3cccc(Cl)c3F)ncnc2cc1OC1CCN(C(=O)c2cccnc2)CC1 [Compound 34, N-(3-chloro-2-fluorophenyl)-7-{[1-(pyridin-3-ylcarbonyl)piperidin-4-yl]oxy}-6-methoxyquinazolin-4-amine] | 43 | 87
COc1cc2ncnc(Nc3cccc(Cl)c3F)c2cc1O[C@@H]1CCCN(C(=O)Cc2cccs2)C1 [Compound 60, N-(3-chloro-2-fluorophenyl)-7-methoxy-6-{[(3R)-1-(2-thienylacetyl)piperidin-3-yl]oxy}quinazolin-4-amine] | < 1 | 30

— patent US7838530B2, “Quinazoline derivatives as antiproliferative agents” (AstraZeneca AB, priority 2003, dated 2010)
